# Laboratory results reported in article PMC9639207 (RSC Advances, 2022).
# Tests used:
# [1] = In vitro stability on incubation with mouse serum; assay type: in vitro ADME; settings: for half-life at 200 µM: mouse, serum; for Fold in vitro half-life relative to native GLP-1, serum incubation: ratio to native GLP-1 (55.7 min), mouse serum, 37 °C
# [2] = target: dipeptidyl peptidase-IV (DPP-IV) (Homo sapiens, UniProt P27487); test: In vitro proteolytic stability against DPP-IV; assay type: in vitro ADME; settings: for half-life: isolated enzyme dpp iv, pH 7.4; for Fold in vitro half-life relative to native GLP-1, DPP-IV incubation: ratio to native GLP-1 (10.2 min), 37 °C
# Sequence of dipeptidyl peptidase-IV (DPP-IV) (P27487 whole entry, species assumed): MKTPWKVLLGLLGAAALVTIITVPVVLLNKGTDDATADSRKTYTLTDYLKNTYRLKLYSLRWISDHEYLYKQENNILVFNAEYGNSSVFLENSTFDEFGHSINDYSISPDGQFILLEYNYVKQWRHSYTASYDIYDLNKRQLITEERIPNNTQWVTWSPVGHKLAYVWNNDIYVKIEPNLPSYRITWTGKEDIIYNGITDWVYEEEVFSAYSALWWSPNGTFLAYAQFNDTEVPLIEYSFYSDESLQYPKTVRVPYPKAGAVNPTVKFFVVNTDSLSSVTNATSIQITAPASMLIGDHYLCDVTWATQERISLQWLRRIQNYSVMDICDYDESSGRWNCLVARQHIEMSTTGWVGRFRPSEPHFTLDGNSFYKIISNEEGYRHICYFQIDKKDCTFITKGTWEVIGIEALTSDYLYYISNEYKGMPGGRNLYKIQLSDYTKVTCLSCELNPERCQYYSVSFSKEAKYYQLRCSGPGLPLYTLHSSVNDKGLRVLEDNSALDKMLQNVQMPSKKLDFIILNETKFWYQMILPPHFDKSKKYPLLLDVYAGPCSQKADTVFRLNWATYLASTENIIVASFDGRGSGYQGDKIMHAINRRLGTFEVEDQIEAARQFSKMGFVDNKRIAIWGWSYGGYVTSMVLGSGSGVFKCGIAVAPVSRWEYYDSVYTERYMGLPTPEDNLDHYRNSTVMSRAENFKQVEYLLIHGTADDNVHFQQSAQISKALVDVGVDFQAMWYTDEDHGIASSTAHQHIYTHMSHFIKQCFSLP
Structure (SMILES),half-life at 200 µM [1],half-life [2],"Fold in vitro half-life relative to native GLP-1, serum incubation [1]","Fold in vitro half-life relative to native GLP-1, DPP-IV incubation [2]"
CC[C@H](C)[C@H](NC(=O)[C@H](Cc1ccccc1)NC(=O)[C@H](CCC(=O)O)NC(=O)[C@H](CCCCN)NC(=O)[C@H](C)NC(=O)[C@H](C)NC(=O)[C@H](CCC(N)=O)NC(=O)CNC(=O)[C@H](CCC(=O)O)NC(=O)[C@H](CC(C)C)NC(=O)[C@H](Cc1ccc(O)cc1)NC(=O)[C@H](CO)NC(=O)[C@H](CO)NC(=O)[C@@H](NC(=O)[C@H](CC(=O)O)NC(=O)[C@H](CO)NC(=O)[C@@H](NC(=O)[C@H](Cc1ccccc1)NC(=O)[C@@H](NC(=O)CNC(=O)[C@H](CCC(=O)O)NC(=O)[C@H](C)NC(=O)[C@@H](N)Cc1c[nH]cn1)[C@@H](C)O)[C@@H](C)O)C(C)C)C(=O)N[C@@H](C)C(=O)N[C@@H](Cc1c[nH]c2ccccc12)C(=O)N[C@@H](CC(C)C)C(=O)N[C@H](C(=O)N[C@@H](CC(=O)N[C@@H]1O[C@H](CO)[C@@H](O)[C@H](O)[C@H]1O)C(=O)NCC(=O)N[C@H](C(=O)NCC(=O)O)[C@@H](C)O)C(C)C [Glc-GLP-1-5],113 ± 11.8 min,32.5 ± 1.4 min,–,–
CC[C@H](C)[C@H](NC(=O)[C@H](CO)NC(=O)[C@H](CCC(=O)O)NC(=O)[C@H](CC(=O)N[C@@H]1O[C@H](CO)[C@@H](O[C@@H]2O[C@H](CO)[C@@H](O[C@@H]3O[C@H](CO[C@H]4O[C@H](CO)[C@@H](O)[C@H](O)[C@@H]4O[C@@H]4O[C@H](CO)[C@@H](O[C@@H]5O[C@H](CO[C@]6(C(=O)O)C[C@H](O)[C@@H](NC(C)=O)[C@H]([C@H](O)[C@H](O)CO)O6)[C@H](O)[C@H](O)[C@H]5O)[C@H](O)[C@H]4NC(C)=O)[C@@H](O)[C@H](O[C@H]4O[C@H](CO)[C@@H](O)[C@H](O)[C@@H]4O[C@@H]4O[C@H](CO)[C@@H](O[C@@H]5O[C@H](CO[C@]6(C(=O)O)C[C@H](O)[C@@H](NC(C)=O)[C@H]([C@H](O)[C@H](O)CO)O6)[C@H](O)[C@H](O)[C@H]5O)[C@H](O)[C@H]4NC(C)=O)[C@@H]3O)[C@H](O)[C@H]2NC(C)=O)[C@H](O)[C@H]1O)NC(=O)[C@H](C)NC(=O)[C@H](C)NC(=O)[C@H](CCC(N)=O)NC(=O)CNC(=O)[C@H](CCC(=O)O)NC(=O)[C@H](CC(C)C)NC(=O)[C@H](Cc1ccc(O)cc1)NC(=O)[C@H](CO)NC(=O)[C@H](CO)NC(=O)[C@@H](NC(=O)[C@H](CC(=O)O)NC(=O)[C@H](CO)NC(=O)[C@@H](NC(=O)[C@H](Cc1ccccc1)NC(=O)[C@@H](NC(=O)CNC(=O)[C@H](CCC(=O)O)NC(=O)[C@H](C)NC(=O)[C@@H](N)Cc1c[nH]cn1)[C@@H](C)O)[C@@H](C)O)C(C)C)C(=O)N[C@@H](C)C(=O)N[C@@H](Cc1c[nH]c2ccccc12)C(=O)N[C@@H](CC(C)C)C(=O)N[C@H](C(=O)N[C@@H](CCCCN)C(=O)NCC(=O)N[C@@H](CCCNC(=N)N)C(=O)NCC(=O)O)C(C)C [Glycan-GLP-1-3(G2S2)],1393 ± 8.9 min,374.7 ± 1.8 min,25.0 fold,36.7 fold
CC[C@H](C)[C@H](NC(=O)[C@H](Cc1ccccc1)NC(=O)[C@H](CCC(=O)O)NC(=O)[C@H](CCCCN)NC(=O)[C@H](C)NC(=O)[C@H](C)NC(=O)[C@H](CCC(N)=O)NC(=O)CNC(=O)[C@H](CCC(=O)O)NC(=O)[C@H](CC(C)C)NC(=O)[C@H](Cc1ccc(O)cc1)NC(=O)[C@H](CO)NC(=O)[C@H](CO)NC(=O)[C@@H](NC(=O)[C@H](CC(=O)O)NC(=O)[C@H](CO)NC(=O)[C@@H](NC(=O)[C@H](Cc1ccccc1)NC(=O)[C@@H](NC(=O)CNC(=O)[C@H](CCC(=O)O)NC(=O)[C@H](C)NC(=O)[C@@H](N)Cc1c[nH]cn1)[C@@H](C)O)[C@@H](C)O)C(C)C)C(=O)N[C@@H](C)C(=O)N[C@@H](Cc1c[nH]c2ccccc12)C(=O)N[C@@H](CC(C)C)C(=O)N[C@H](C(=O)N[C@@H](CC(=O)N[C@@H]1O[C@H](CO)[C@@H](O[C@@H]2O[C@H](CO)[C@@H](O[C@@H]3O[C@H](CO[C@H]4O[C@H](CO)[C@@H](O)[C@H](O)[C@@H]4O[C@@H]4O[C@H](CO)[C@@H](O[C@@H]5O[C@H](CO[C@]6(C(=O)O)C[C@H](O)[C@@H](NC(C)=O)[C@H]([C@H](O)[C@H](O)CO)O6)[C@H](O)[C@H](O)[C@H]5O)[C@H](O)[C@H]4NC(C)=O)[C@@H](O)[C@H](O[C@H]4O[C@H](CO)[C@@H](O)[C@H](O)[C@@H]4O[C@@H]4O[C@H](CO)[C@@H](O[C@@H]5O[C@H](CO[C@]6(C(=O)O)C[C@H](O)[C@@H](NC(C)=O)[C@H]([C@H](O)[C@H](O)CO)O6)[C@H](O)[C@H](O)[C@H]5O)[C@H](O)[C@H]4NC(C)=O)[C@@H]3O)[C@H](O)[C@H]2NC(C)=O)[C@H](O)[C@H]1O)C(=O)NCC(=O)N[C@H](C(=O)NCC(=O)O)[C@@H](C)O)C(C)C [Glycan-GLP-1-5(G2S2)],777 ± 10.2 min,245.3 ± 1.3 min,13.9 fold,24.0 fold
CC[C@H](C)[C@H](NC(=O)[C@H](CO)NC(=O)[C@H](CCC(=O)O)NC(=O)[C@H](CC(=O)N[C@@H]1O[C@H](CO)[C@@H](O[C@@H]2O[C@H](CO)[C@@H](O[C@@H]3O[C@H](CO[C@H]4O[C@H](CO)[C@@H](O)[C@H](O)[C@@H]4O[C@@H]4O[C@H](CO)[C@@H](O[C@@H]5O[C@H](CO)[C@H](O)[C@H](O)[C@H]5O)[C@H](O)[C@H]4NC(C)=O)[C@@H](O)[C@H](O[C@H]4O[C@H](CO)[C@@H](O)[C@H](O)[C@@H]4O[C@@H]4O[C@H](CO)[C@@H](O[C@@H]5O[C@H](CO)[C@H](O)[C@H](O)[C@H]5O)[C@H](O)[C@H]4NC(C)=O)[C@@H]3O)[C@H](O)[C@H]2NC(C)=O)[C@H](O)[C@H]1O)NC(=O)[C@H](C)NC(=O)[C@H](C)NC(=O)[C@H](CCC(N)=O)NC(=O)CNC(=O)[C@H](CCC(=O)O)NC(=O)[C@H](CC(C)C)NC(=O)[C@H](Cc1ccc(O)cc1)NC(=O)[C@H](CO)NC(=O)[C@H](CO)NC(=O)[C@@H](NC(=O)[C@H](CC(=O)O)NC(=O)[C@H](CO)NC(=O)[C@@H](NC(=O)[C@H](Cc1ccccc1)NC(=O)[C@@H](NC(=O)CNC(=O)[C@H](CCC(=O)O)NC(=O)[C@H](C)NC(=O)[C@@H](N)Cc1c[nH]cn1)[C@@H](C)O)[C@@H](C)O)C(C)C)C(=O)N[C@@H](C)C(=O)N[C@@H](Cc1c[nH]c2ccccc12)C(=O)N[C@@H](CC(C)C)C(=O)N[C@H](C(=O)N[C@@H](CCCCN)C(=O)NCC(=O)N[C@@H](CCCNC(=N)N)C(=O)NCC(=O)O)C(C)C [Glycan-GLP-1-3(G2)],739 ± 9.7 min,185.3 ± 1.1 min,–,–
CC[C@H](C)[C@H](NC(=O)[C@H](CO)NC(=O)[C@H](CCC(=O)O)NC(=O)[C@H](CC(=O)N[C@@H]1O[C@H](CO)[C@@H](O)[C@H](O)[C@H]1O)NC(=O)[C@H](C)NC(=O)[C@H](C)NC(=O)[C@H](CCC(N)=O)NC(=O)CNC(=O)[C@H](CCC(=O)O)NC(=O)[C@H](CC(C)C)NC(=O)[C@H](Cc1ccc(O)cc1)NC(=O)[C@H](CO)NC(=O)[C@H](CO)NC(=O)[C@@H](NC(=O)[C@H](CC(=O)O)NC(=O)[C@H](CO)NC(=O)[C@@H](NC(=O)[C@H](Cc1ccccc1)NC(=O)[C@@H](NC(=O)CNC(=O)[C@H](CCC(=O)O)NC(=O)[C@H](C)NC(=O)[C@@H](N)Cc1c[nH]cn1)[C@@H](C)O)[C@@H](C)O)C(C)C)C(=O)N[C@@H](C)C(=O)N[C@@H](Cc1c[nH]c2ccccc12)C(=O)N[C@@H](CC(C)C)C(=O)N[C@H](C(=O)N[C@@H](CCCCN)C(=O)NCC(=O)N[C@@H](CCCNC(=N)N)C(=O)NCC(=O)O)C(C)C [Glc-GLP-1-3],139 ± 14.5 min,46.1 ± 3.5 min,–,–
CC[C@H](C)[C@H](NC(=O)[C@H](Cc1ccccc1)NC(=O)[C@H](CCC(=O)O)NC(=O)[C@H](CCCCN)NC(=O)[C@H](C)NC(=O)[C@H](C)NC(=O)[C@H](CCC(N)=O)NC(=O)CNC(=O)[C@H](CCC(=O)O)NC(=O)[C@H](CC(C)C)NC(=O)[C@H](Cc1ccc(O)cc1)NC(=O)[C@H](CO)NC(=O)[C@H](CO)NC(=O)[C@@H](NC(=O)[C@H](CC(=O)N[C@@H]1O[C@H](CO)[C@@H](O[C@@H]2O[C@H](CO)[C@@H](O[C@@H]3O[C@H](CO[C@H]4O[C@H](CO)[C@@H](O)[C@H](O)[C@@H]4O[C@@H]4O[C@H](CO)[C@@H](O[C@@H]5O[C@H](CO[C@]6(C(=O)O)C[C@H](O)[C@@H](NC(C)=O)[C@H]([C@H](O)[C@H](O)CO)O6)[C@H](O)[C@H](O)[C@H]5O)[C@H](O)[C@H]4NC(C)=O)[C@@H](O)[C@H](O[C@H]4O[C@H](CO)[C@@H](O)[C@H](O)[C@@H]4O[C@@H]4O[C@H](CO)[C@@H](O[C@@H]5O[C@H](CO[C@]6(C(=O)O)C[C@H](O)[C@@H](NC(C)=O)[C@H]([C@H](O)[C@H](O)CO)O6)[C@H](O)[C@H](O)[C@H]5O)[C@H](O)[C@H]4NC(C)=O)[C@@H]3O)[C@H](O)[C@H]2NC(C)=O)[C@H](O)[C@H]1O)NC(=O)[C@H](CO)NC(=O)[C@@H](NC(=O)[C@H](Cc1ccccc1)NC(=O)[C@@H](NC(=O)CNC(=O)[C@H](CCC(=O)O)NC(=O)[C@H](C)NC(=O)[C@@H](N)Cc1c[nH]cn1)[C@@H](C)O)[C@@H](C)O)C(C)C)C(=O)N[C@@H](C)C(=O)N[C@@H](Cc1c[nH]c2ccccc12)C(=O)N[C@@H](CC(C)C)C(=O)N[C@H](C(=O)N[C@@H](CCCCN)C(=O)NCC(=O)N[C@@H](CCCNC(=N)N)C(=O)NCC(=O)O)C(C)C [Glycan-GLP-1-1(G2S2)],737 ± 12.3 min,146 ± 4.3 min,–,–
